{
  "source": "ChEMBL document CHEMBL5104219",
  "about": "“Pyrazolidine Carboxamide Analogs as Selective Agonists of the Cannabinoid 2 Receptor” (ACS Med Chem Lett, 2022)",
  "format_in_all_cases": "functional, cell-based",
  "key": {"Cannabinoid receptor 2 [1]": {"biological_target": "T1, Cannabinoid receptor 2 (Homo sapiens, UniProt P34972)", "T1 sequence (P34972 whole entry)": "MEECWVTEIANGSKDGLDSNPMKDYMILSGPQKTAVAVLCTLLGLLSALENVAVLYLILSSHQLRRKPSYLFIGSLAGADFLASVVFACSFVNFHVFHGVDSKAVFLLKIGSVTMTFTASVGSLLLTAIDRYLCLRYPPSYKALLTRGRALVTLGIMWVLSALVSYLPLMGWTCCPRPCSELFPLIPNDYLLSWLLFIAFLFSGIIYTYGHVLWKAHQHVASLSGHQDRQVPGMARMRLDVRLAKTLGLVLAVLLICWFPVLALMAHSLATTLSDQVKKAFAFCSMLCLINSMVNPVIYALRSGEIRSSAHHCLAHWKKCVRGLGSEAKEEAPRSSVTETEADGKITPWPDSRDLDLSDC", "assay": "Agonist activity at human CB2 receptor expressed in CHO cells assessed as inhibition of accumulation of forskolin-stimulated cAMP level by measuring maximum activation incubated for 35 mins by chemiluminescence based assay relative to control", "conditions": "filed as agonist"}, "Cannabinoid receptor 2 [2]": {"biological_target": "T1, Cannabinoid receptor 2", "assay": "Agonist activity at human CB2 receptor expressed in PathHunter CHO-K1 CNR2 beta-arrestin cells assessed as beta-arrestin recruitment incubated for 3 hrs by plate reader analysis"}, "Cannabinoid receptor 2 [3]": {"biological_target": "T1, Cannabinoid receptor 2", "assay": "Agonist activity at human CB2 receptor expressed in CHO cells assessed as inhibition of accumulation of forskolin-stimulated cAMP level incubated for 35 mins by chemiluminescence based assay"}},
  "data": [
    {"smiles": "CC(C)(C)c1cc(NC(=O)N2CCCN2c2ccc(C(F)(F)F)cc2)on1", "values": [
      {"measurement": "Emax", "setting": "Cannabinoid receptor 2 [1]", "result": 114, "unit": "%"},
      {"measurement": "EC50", "setting": "Cannabinoid receptor 2 [2]", "result": "> 1000", "unit": "nM"}
    ]},
    {"smiles": "CC(C)(CO)c1cc(NC(=O)N2CCCN2c2ccc(C(F)(F)F)cc2)on1", "values": [
      {"measurement": "Emax", "setting": "Cannabinoid receptor 2 [1]", "result": 99.7, "unit": "%"},
      {"measurement": "EC50", "setting": "Cannabinoid receptor 2 [2]", "result": 167, "unit": "nM"},
      {"measurement": "EC50", "setting": "Cannabinoid receptor 2 [3]", "result": 42.7, "unit": "nM"}
    ]},
    {"smiles": "Cc1nc(N2CCN(C)CC2)c2nc(-c3ccccc3Cl)n(C3CCOCC3)c2n1", "values": [
      {"measurement": "Emax", "setting": "Cannabinoid receptor 2 [1]", "result": 52.6, "unit": "%"}
    ]}
  ]
}
